According to patent publication US6969702B2, “Compounds and methods for increasing neurogenesis” (priority 2002, dated 2005):
Marks after values point to notes of the source that are not given here. Bridge positions count the residues as written; N and C are the ends. Square brackets hold non-standard residues; d marks the D form. Peptide text beside a SMILES is read from it.

Assays:
Adult neural stem cells = experiment: Flow cytometry for early neuronal marker Doublecortin; settings: Table 6; 100 nM; 4 days
[1] = tested on: mouse adult neural stem cells; experiment: ATP-assay: proliferation (ATP levels) of neurosphere-derived cells; settings: for proliferation of neural stem cells: cAMP activators, GPCR-independent
[2] = tested on: cAMP activation in mouse adult neural stem cells; experiment: cAMP detection (HitHunter EFC Cyclic AMP Chemiluminescence Assay); settings: for Fold Induction cAMP: vs vehicle
[3] = Table 2, 1 nM (cAMP concentration)
[4] = Table 2, 1000 nM, 4 days, vs vehicle
[5] = Table 2, 100 nM (cAMP concentration)
[6] = Table 2, 10 nM (cAMP concentration)
[7] = Table 1, 100 nM, 4 days in culture
[8] = Table 1, 100 nM, after 15 minutes
[9] = Mus musculus, Neural stem cell, 96 h, read-out: Fold Induction ATP

C[C@H](NC(=O)[C@@H](Cc1c[nH]c2ccccc12)NC(=O)[C@@H](N)Cc1c[nH]cn1)C(=O)N[C@@H](Cc1c[nH]c2ccccc12)C(=O)N[C@H](Cc1ccccc1)C(=O)N[C@@H](CCCCN)C(N)=O [(D-Trp7.Ala8.D-Phe10)-α-Melanocyte stimulating hormone F: 6-11/GHRP] (H-H[dW]AW[dF]K-NH2; N-terminus and C-terminus assumed)
% Doublecortin-positive cells (Adult neural stem cells): 5.3%

CC(C)C[C@H](NC(=O)[C@H](Cc1ccccc1)NC(=O)CNC(=O)[C@H](NC(=O)[C@@H](N)Cc1ccc(O)cc1)[C@H](C)O)C(=O)N[C@H](C(=O)O)[C@@H](C)O [DTLET]
ATP (nM ATP/well) ([1]; Table 2, 10 nM, 4 days): 9.2 ± 0.9 nM ATP/well | % Doublecortin-positive cells (Adult neural stem cells): 4.1%

CC(C)C[C@H](NC(=O)[C@H](CC(C)C)NC(=O)[C@@H](Cc1c[nH]c2ccccc12)NC(=O)[C@H](Cc1ccccc1)NC(=O)[C@@H](Cc1c[nH]c2ccccc12)NC(=O)[C@H](CCC(N)=O)NC(=O)[C@H](CCC(N)=O)NC(=O)[C@@H]1CCCN1C(=O)[C@H](CCCCN)NC(=O)[C@@H]1CCCN1C(=O)[C@@H](CCCNC(=N)N)NC(=O)[C@@H]1CCCN1C(=O)CNC(=O)[C@H](CC(C)C)NC(=O)[C@H](CC(C)C)NC(=O)[C@H](Cc1ccc(O)cc1)NC(=O)CNC(=O)[C@H](C)NC(=O)[C@H](CO)NC(=O)[C@H](CC(N)=O)NC(=O)[C@H](CC(C)C)NC(=O)[C@@H](NC(=O)[C@H](Cc1c[nH]c2ccccc12)NC(=O)CN)[C@@H](C)O)C(N)=O [Galanin (1-13)-Spantide-Amide, M40] (H-GWTLNSAGYLLGP[dR]PKPQQ[dW]F[dW]LL-NH2; N-terminus assumed)
ATP (nM ATP/well) ([1]; Table 2, 100 nM, 4 days): 7.10 ± 0.5 nM ATP/well | cAMP (pmol/well) [2, 3]: 0.82 ± 0.08 pmol/well

CC[C@H](C)[C@H](NC(=O)[C@H](Cc1ccccc1)NC(=O)[C@H](CCC(=O)O)NC(=O)[C@H](CCCCN)NC(=O)[C@H](C)NC(=O)[C@H](C)NC(=O)[C@H](CCC(N)=O)NC(=O)CNC(=O)[C@H](CCC(=O)O)NC(=O)[C@H](CC(C)C)NC(=O)[C@H](Cc1ccc(O)cc1)NC(=O)[C@H](CO)NC(=O)[C@H](CO)NC(=O)[C@@H](NC(=O)[C@H](CC(=O)O)NC(=O)[C@H](CO)NC(=O)[C@@H](NC(=O)[C@H](Cc1ccccc1)NC(=O)[C@@H](NC(=O)CNC(=O)[C@H](CCC(=O)O)NC(=O)[C@H](C)NC(=O)[C@@H](N)Cc1c[nH]cn1)[C@@H](C)O)[C@@H](C)O)C(C)C)C(=O)N[C@@H](C)C(=O)N[C@@H](Cc1c[nH]c2ccccc12)C(=O)N[C@@H](CC(C)C)C(=O)N[C@H](C(=O)N[C@@H](CCCCN)C(=O)NCC(=O)N[C@@H](CCCNC(=N)N)C(=O)NCC(=O)O)C(C)C [Glucagon-Like Peptide-1 (7-37) (Human)]
ATP (nM ATP/well) ([1]; Table 2, 1000 nM, 4 days): 18.3 ± 1.4 nM ATP/well | Fold Induction ATP [1, 4]: 1.3** fold | cAMP (pmol/well) [2, 5]: 0.08 ± 0.01 pmol/well | Fold Induction cAMP ([2]; Table 2, 100 nM): 1.4* (100 nM) fold

CCCCC#Cc1nc(N)c2ncn([C@@H]3O[C@H](C(=O)NCC)[C@@H](O)[C@H]3O)c2n1 [HE-NECA]
ATP (nM ATP/well) ([1]; Table 2, 1000 nM, 4 days): 8.2 ± 1.1 nM ATP/well | Fold Induction ATP [1, 4]: 1.8** fold | cAMP (pmol/well) [2, 6]: 3.32 ± 0.28 pmol/well | Fold Induction cAMP ([2]; Table 2, 10 nM): 1.8*** (10 nM) fold

CCCC(=O)Nc1ncnc2c1ncn2[C@@H]1O[C@H](CO)[C@@H](O)[C@H]1OC(=O)CCC [N-6,2-O-Dibutyryladenosine, n-6,2-o-dibutyryladenosine]
ATP (nM ATP/well) [1, 7]: 13.9 ± 1.1 nM ATP/well | Fold Induction ATP ([1]; Table 1, 100 nM, 4 days, vs vehicle treated cells): 1.5** fold | proliferation of neural stem cells [1]: increase | cAMP (pmol/well) [2, 8]: 0.10 ± 0.01 pmol/well | Fold Induction cAMP [2, 8]: 4.5** fold

Oc1ccc2c3c1O[C@H]1c4[nH]c5c(c4C[C@@]4(O)[C@@H](C2)N(CC2CC2)CC[C@]314)C[C@@]1(O)[C@H]2Cc3ccc(O)c4c3[C@@]1(CCN2CC1CC1)[C@H]5O4 [Nor-Binaltorphimine, nor-Binaltorphimine]
fold induction at 0.0001 µM [1, 9]: 1.4 | ATP (nM ATP/well) ([1]; Table 2, 0.1 nM, 4 days): 19.4 ± 3.2 nM ATP/well | fold induction at 10 pM ([2]; Mus musculus, Neural stem cell, read-out: Fold Induction cAMP): 6.3 | cAMP (pmol/well) ([2]; Table 2, 0.01 nM (bracketed cAMP concentration)): 6.10 ± 3.72 pmol/well

COc1ccc(C2CNC(=O)C2)cc1OC1CCCC1 (centres unmarked) [Rolipram, rolipram]
fold induction at 0.1 µM [1, 9]: 1.1 | ATP (nM ATP/well) [1, 7]: 10.4 ± 0.4 nM ATP/well | proliferation of neural stem cells [1]: increase | fold induction at 0.1 µM ([2]; Mus musculus, Neural stem cell, 0.25 h, read-out: Fold Induction cAMP): 3.8 | cAMP (pmol/well) [2, 8]: 0.09 ± 0.03 pmol/well

CC[C@H](C)[C@H](NC(=O)[C@H](CO)NC(=O)[C@H](CC(N)=O)NC(=O)[C@H](CC(C)C)NC(=O)[C@H](Cc1ccc(O)cc1)NC(=O)[C@H](CCCCN)NC(=O)[C@H](CCCCN)NC(=O)[C@@H](NC(=O)[C@H](C)NC(=O)[C@H](CCSC)NC(=O)[C@H](CCC(N)=O)NC(=O)[C@H](CCCCN)NC(=O)[C@H](CCCNC(=N)N)NC(=O)[C@H](CC(C)C)NC(=O)[C@H](CCCNC(=N)N)NC(=O)[C@@H](NC(=O)[C@H](Cc1ccc(O)cc1)NC(=O)[C@H](CC(N)=O)NC(=O)[C@H](CC(=O)O)NC(=O)[C@@H](NC(=O)[C@H](Cc1ccccc1)NC(=O)[C@@H](NC(=O)[C@H](C)NC(=O)[C@H](CC(=O)O)NC(=O)[C@H](CO)NC(=O)[C@@H](N)Cc1c[nH]cn1)C(C)C)[C@@H](C)O)[C@@H](C)O)C(C)C)C(=O)N[C@@H](CC(C)C)C(=O)N[C@@H](CC(N)=O)C(N)=O [Vasoactive Intestinal Peptide (Human, Porcine, Rat)]
ATP (nM ATP/well) ([1]; Table 2, 1000 nM, 4 days): 20.6 ± 1.2 nM ATP/well | cAMP (pmol/well) [2, 5]: 0.39 ± 0.12 pmol/well

CSCC[C@H](NC(=O)[C@H](CC(C)C)NC(=O)[C@@H]1CCCN1C(=O)[C@H](Cc1ccc(O)cc1)NC(=O)[C@H](Cc1ccccc1)NC(=O)[C@@H]1CSSC[C@H](NC(=O)[C@@H]2CCCN2C(=O)[C@@H](N)CCCNC(=N)N)C(=O)N2CCC[C@H]2C(=O)N[C@@H](CCC(N)=O)C(=O)N1)C(N)=O [[Cys3,6, Tyr8, Pro9]-Substance P] (H-RPCPQCFYPLM-NH2; disulfide 3-6 (inferred); N-terminus and C-terminus assumed)
ATP (nM ATP/well) ([1]; Table 2, 100 nM, 4 days): 11.2 ± 0.4 nM ATP/well | cAMP (pmol/well) [2, 5]: 0.29 ± 10 pmol/well

CC(C)C[C@H](NC(=O)[C@@H]1CCCN1C(=O)[C@H](CO)NC(=O)[C@H](Cc1ccccc1)NC(=O)CNC(=O)[C@@H]1CCCN1C(=O)[C@@H]1CCCN1C(=O)[C@@H](N)CCCNC(=N)N)C(=O)O [[Des-Arg9, Leu8]-Bradykinin]
ATP (nM ATP/well) ([1]; Table 2, 10 nM, 4 days): 9.8 ± 0.4 nM ATP/well | Fold Induction ATP ([1]; Table 2, 10 nM, 4 days, vs vehicle): 1.1* fold | cAMP (pmol/well) [2, 3]: 0.09 ± 0.02 pmol/well | Fold Induction cAMP ([2]; Table 2, 1 nM): 2.6* (1 nM) fold

CCCC[C@H](NC(=O)[C@H](CO)NC(=O)[C@H](CC(N)=O)NC(=O)[C@H](CC(C)C)NC(=O)[C@H](Cc1c[nH]cn1)NC(=O)[C@H](CCCCN)NC(=O)CNC(=O)[C@H](CC(C)C)NC(=O)[C@H](CC(N)=O)NC(=O)[C@H](Cc1c[nH]cn1)NC(=O)[C@H](CCCC)NC(=O)[C@H](CC(C)C)NC(=O)[C@H](CCC(N)=O)NC(=O)[C@@H](NC(=O)[C@H](CCC(=O)O)NC(=O)[C@H](CO)NC(=O)[C@@H](NC(=O)[C@@H](N)CO)C(C)C)[C@@H](C)CC)C(=O)N[C@@H](CCC(=O)O)C(=O)N[C@@H](CCCNC(=N)N)C(=O)N[C@H](C(=O)N[C@@H](CCC(=O)O)C(=O)N[C@@H](Cc1c[nH]c2ccccc12)C(=O)N[C@@H](CC(C)C)C(=O)N[C@@H](CCCNC(=N)N)C(=O)N[C@@H](CCCCN)C(=O)N[C@@H](CCCCN)C(=O)N[C@@H](CC(C)C)C(=O)N[C@@H](CCC(N)=O)C(=O)N[C@@H](CC(=O)O)C(=O)N[C@H](C(=O)N[C@@H](Cc1c[nH]cn1)C(=O)N[C@@H](CC(N)=O)C(=O)N[C@@H](Cc1ccc(O)cc1)C(N)=O)C(C)C)C(C)C [[Nle8,18, Tyr34]-Parathyroid Hormone (1-34) Amide (Human)]
ATP (nM ATP/well) ([1]; Table 2, 1000 nM, 4 days): 23.5 ± 2.7 nM ATP/well | Fold Induction ATP [1, 4]: 1.7** fold | cAMP (pmol/well) [2, 6]: 0.16 ± 0.05 pmol/well | Fold Induction cAMP ([2]; Table 2, 10 nM): 2.6* (10 nM) fold

CC(C)C[C@H](NC(=O)CN(C)C(=O)[C@H](Cc1ccccc1)NC(=O)[C@H](Cc1ccccc1)NC(=O)[C@H](CCC(N)=O)NC(=O)[C@H](CCC(N)=O)NC(=O)[C@@H]1CCCN1C(=O)[C@H](CCCCN)NC(=O)[C@@H]1CCCN1C(=O)[C@@H](N)CCCNC(=N)N)C(=O)N[C@@H](CCS(C)(=O)=O)C(N)=O [[Sar9, Met (0)11]-Substance P]
ATP (nM ATP/well) ([1]; Table 2, 100 nM, 4 days): 39.7 ± 2.1 nM ATP/well | cAMP (pmol/well) [2, 5]: 0.16 ± 0.05 pmol/well
